Source: patent US20150005281A1, “PYRIMIDINE-2,4-DIAMINE DERIVATIVES AS KINASE INHIBITORS” (Cellzome Limited, priority 2011, published 2015)

Experiments:
[1] = Changelian et al., 2003; cited from earlier work
TYK2 = molecular target: T1, TYK2 (Homo sapiens, UniProt P29597); experiment: Kinobeads assay with immunodetection, TYK2; assay type: binding; details: Kinobeads assay, mixed Molt4/Ramos lysate; read-out: Inhibition values (IC50) Tyk2
T1 construct: endogenous in cells; host or cells: Molt4 (ATCC CRL-1582) and Ramos (ATCC CRL-1596) cells; mixed lysate 1:2
T1 sequence (P29597 whole entry): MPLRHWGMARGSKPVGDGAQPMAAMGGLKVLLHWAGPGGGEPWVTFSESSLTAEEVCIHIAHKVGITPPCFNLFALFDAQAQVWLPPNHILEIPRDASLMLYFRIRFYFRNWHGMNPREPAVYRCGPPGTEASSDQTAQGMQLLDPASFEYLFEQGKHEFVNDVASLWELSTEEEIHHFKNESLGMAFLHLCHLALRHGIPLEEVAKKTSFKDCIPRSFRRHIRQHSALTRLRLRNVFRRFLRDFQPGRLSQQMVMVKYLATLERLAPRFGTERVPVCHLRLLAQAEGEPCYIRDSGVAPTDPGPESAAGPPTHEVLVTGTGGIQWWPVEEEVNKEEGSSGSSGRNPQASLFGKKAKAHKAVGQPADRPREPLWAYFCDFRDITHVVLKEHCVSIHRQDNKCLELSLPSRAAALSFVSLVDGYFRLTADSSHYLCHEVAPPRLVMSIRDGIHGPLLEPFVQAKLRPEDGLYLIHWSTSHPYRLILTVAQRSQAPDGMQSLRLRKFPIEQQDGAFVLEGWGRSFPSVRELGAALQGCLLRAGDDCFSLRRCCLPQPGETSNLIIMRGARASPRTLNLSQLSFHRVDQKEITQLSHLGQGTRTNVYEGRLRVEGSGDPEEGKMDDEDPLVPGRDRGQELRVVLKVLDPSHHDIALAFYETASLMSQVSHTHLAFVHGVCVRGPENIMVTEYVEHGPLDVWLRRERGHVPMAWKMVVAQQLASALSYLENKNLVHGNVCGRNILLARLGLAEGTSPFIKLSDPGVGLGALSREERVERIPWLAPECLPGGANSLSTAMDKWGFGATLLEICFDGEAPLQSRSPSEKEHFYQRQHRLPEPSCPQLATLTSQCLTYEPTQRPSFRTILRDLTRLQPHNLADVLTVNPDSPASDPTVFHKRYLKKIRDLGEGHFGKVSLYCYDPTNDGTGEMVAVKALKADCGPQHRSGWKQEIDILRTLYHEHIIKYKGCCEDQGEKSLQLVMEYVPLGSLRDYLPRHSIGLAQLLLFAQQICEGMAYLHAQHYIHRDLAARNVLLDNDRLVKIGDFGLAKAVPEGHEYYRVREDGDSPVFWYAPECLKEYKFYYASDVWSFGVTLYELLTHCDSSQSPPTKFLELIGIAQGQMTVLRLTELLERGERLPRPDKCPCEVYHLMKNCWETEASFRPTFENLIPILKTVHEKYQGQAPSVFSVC
Method in brief: (§1)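 Inhibition of kinase capture on aminopyrido-pyrimidine beads was measured after a 3 h cold incubation in mixed human leukemia and lymphoma cell lysate. Bound kinase was quantified by immunodetection and IC50s were calculated.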

JAK1 = molecular target: T2, JAK1 (Homo sapiens, UniProt P23458); experiment: Kinobeads assay with immunodetection, JAK1; assay type: binding; details: for IC50: Kinobeads assay, mixed Molt4/Ramos lysate, read-out: Inhibition values (IC50) JAK1
T2 construct: endogenous in cells; host or cells: Molt4 (ATCC CRL-1582) and Ramos (ATCC CRL-1596) cells; mixed lysate 1:2
T2 sequence (P23458 whole entry): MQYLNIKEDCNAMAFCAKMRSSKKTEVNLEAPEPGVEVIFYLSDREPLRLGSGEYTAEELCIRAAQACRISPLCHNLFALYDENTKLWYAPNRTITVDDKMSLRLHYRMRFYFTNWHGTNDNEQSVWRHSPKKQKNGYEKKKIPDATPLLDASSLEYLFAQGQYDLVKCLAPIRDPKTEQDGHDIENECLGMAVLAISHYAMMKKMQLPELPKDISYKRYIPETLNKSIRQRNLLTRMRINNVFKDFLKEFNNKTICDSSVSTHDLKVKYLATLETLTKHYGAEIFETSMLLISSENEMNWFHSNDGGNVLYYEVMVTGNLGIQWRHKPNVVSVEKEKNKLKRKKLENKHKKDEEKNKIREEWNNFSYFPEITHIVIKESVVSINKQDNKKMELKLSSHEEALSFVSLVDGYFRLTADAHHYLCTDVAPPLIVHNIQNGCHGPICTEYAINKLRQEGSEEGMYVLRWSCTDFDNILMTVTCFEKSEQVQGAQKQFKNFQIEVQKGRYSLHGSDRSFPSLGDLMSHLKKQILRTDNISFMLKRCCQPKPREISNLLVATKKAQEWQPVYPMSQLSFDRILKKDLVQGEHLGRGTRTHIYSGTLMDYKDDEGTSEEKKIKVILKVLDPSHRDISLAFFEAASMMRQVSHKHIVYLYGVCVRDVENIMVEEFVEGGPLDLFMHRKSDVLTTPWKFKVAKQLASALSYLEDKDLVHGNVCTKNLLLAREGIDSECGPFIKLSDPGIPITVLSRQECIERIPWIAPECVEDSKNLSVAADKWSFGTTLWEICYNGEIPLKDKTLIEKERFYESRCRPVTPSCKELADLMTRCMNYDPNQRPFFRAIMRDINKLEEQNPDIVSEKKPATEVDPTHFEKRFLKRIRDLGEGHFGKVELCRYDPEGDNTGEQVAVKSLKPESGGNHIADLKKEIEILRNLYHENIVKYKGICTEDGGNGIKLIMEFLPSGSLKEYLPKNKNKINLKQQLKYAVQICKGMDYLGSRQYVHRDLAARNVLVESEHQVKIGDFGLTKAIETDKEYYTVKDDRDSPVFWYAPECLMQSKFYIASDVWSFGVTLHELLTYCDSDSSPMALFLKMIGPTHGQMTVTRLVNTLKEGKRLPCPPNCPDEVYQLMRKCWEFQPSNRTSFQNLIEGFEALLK
Method in brief: as §1

JAK2 = molecular target: T3, JAK2 (Homo sapiens, UniProt O60674); experiment: Kinobeads assay with immunodetection, JAK2; assay type: binding; details: mixed Molt4/Ramos lysate, read-out: Inhibition values (IC50) JAK2
T3 construct: endogenous in cells; host or cells: Molt4 (ATCC CRL-1582) and Ramos (ATCC CRL-1596) cells; mixed lysate 1:2
T3 sequence (O60674 whole entry): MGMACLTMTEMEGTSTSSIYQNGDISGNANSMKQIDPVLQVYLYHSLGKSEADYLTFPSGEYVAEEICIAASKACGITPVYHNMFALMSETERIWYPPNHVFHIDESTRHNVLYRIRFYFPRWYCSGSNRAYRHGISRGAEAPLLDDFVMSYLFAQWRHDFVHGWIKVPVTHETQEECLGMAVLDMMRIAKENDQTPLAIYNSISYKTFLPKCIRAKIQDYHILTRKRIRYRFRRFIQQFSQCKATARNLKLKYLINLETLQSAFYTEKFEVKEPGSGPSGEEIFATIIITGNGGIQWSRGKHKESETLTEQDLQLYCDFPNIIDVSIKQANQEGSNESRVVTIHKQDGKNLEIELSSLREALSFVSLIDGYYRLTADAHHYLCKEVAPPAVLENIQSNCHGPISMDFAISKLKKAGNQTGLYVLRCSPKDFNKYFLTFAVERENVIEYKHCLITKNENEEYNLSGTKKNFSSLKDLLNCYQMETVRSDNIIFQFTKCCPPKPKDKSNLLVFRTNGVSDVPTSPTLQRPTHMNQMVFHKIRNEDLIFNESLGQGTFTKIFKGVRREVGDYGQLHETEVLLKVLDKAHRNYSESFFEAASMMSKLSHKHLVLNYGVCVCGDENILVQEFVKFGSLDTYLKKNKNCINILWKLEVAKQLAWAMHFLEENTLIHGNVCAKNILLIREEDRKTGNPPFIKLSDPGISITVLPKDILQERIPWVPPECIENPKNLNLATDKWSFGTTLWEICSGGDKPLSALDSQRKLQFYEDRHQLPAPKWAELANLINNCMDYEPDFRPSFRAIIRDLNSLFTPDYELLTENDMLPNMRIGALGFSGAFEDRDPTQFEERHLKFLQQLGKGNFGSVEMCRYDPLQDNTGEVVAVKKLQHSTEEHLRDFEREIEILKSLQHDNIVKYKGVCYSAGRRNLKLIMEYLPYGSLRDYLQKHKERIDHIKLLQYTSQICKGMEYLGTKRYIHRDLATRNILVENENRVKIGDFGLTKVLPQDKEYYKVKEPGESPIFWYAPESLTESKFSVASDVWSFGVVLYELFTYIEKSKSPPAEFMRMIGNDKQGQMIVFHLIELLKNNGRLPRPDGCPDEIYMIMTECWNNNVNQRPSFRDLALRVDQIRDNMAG
Method in brief: as §1

JAK3 = molecular target: T4, JAK3 (Homo sapiens, UniProt P52333); experiment: Kinobeads assay with immunodetection, JAK3; assay type: binding; details: for IC50: Kinobeads assay, mixed Molt4/Ramos lysate, read-out: Inhibition values (IC50) JAK3
T4 construct: endogenous in cells; host or cells: Molt4 (ATCC CRL-1582) and Ramos (ATCC CRL-1596) cells; mixed lysate 1:2
T4 sequence (P52333 1-1124): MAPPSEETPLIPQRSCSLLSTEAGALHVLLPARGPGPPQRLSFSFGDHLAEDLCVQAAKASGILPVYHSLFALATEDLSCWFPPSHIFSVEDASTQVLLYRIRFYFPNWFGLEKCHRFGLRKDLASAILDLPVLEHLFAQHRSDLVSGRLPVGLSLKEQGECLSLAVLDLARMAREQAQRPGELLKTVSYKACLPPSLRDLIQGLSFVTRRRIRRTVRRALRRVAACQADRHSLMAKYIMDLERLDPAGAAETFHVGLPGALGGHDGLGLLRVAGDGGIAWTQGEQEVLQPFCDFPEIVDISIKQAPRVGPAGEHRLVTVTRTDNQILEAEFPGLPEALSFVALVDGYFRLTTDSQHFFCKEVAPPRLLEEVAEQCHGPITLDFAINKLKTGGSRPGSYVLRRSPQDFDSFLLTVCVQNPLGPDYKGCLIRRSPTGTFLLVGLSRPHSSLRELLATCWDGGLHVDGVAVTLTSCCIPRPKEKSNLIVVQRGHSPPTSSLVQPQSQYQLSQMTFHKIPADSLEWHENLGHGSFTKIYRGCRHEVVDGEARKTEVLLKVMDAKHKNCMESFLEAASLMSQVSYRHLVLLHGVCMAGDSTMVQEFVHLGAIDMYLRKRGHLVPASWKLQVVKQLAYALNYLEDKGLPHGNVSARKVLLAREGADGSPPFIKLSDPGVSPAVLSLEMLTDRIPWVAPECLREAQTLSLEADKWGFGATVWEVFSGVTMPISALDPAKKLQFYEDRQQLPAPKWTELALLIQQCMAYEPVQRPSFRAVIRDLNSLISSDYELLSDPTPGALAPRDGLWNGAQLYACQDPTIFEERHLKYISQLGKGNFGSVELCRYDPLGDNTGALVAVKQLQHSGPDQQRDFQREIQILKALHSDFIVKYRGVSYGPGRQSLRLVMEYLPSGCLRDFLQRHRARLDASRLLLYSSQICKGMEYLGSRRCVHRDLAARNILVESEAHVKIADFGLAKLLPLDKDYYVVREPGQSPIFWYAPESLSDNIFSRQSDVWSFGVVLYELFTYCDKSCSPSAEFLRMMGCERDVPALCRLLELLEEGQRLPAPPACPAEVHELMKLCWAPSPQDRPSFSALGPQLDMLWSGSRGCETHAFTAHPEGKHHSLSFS
Method in brief: as §1

[2] = NOD mouse; cited from earlier work
[3] = Cetkovic-Cvrlje and Ucken, 2004; cited from earlier work

IC50 (TYK2) [nM] | Selectivity ratio over JAK2, JAK1 (JAK1) | IC50 (JAK1) [nM] | IC50 (JAK2) [nM] | IC50 (JAK3) [nM] | Selectivity ratio over JAK2, JAK3 (JAK3) | SMILES | efficacy in organ transplantation model [1] | spontaneous autoimmune diabetes development [2] | severity of GVHD [3]
– | – | – | – | – | – | C[C@@H]1CCN(C(=O)CC#N)C[C@@H]1N(C)c1ncnc2[nH]ccc12 [CP-690,550] | efficacy | – | –
< 100 | JAK1 = 100 | < 100 | 1000 to 10000 | 100 to 1000 | – | Cn1cc(Nc2ncc(Cl)c(NC[C@@H]3C[C@H](F)CN3CCCS(C)(=O)=O)n2)cn1 [Example 132, 5-chloro-N^4-(((2S,4S)-4-fluoro-1-(3-(methylsulfonyl)propyl)pyrrolidin-2-yl)methyl)-N^2-(1-methyl-1H-pyrazol-4-yl)pyrimidine-2,4-diamine] | – | – | –
< 100 | JAK1 = 19 | < 100 | < 100 | < 100 | – | Cn1cc(Nc2ncc(Cl)c(NC[C@@H]3C[C@H](F)CN3CCCC#N)n2)cn1 [Example 133, 4-((2S,4S)-2-(((5-chloro-2-((1-methyl-1H-pyrazol-4-yl)amino)pyrimidin-4-yl)amino)methyl)-4-fluoropyrrolidin-1-yl)butanenitrile] | – | – | –
< 100 | – | < 100 | 100 to 1000 | < 100 | JAK3 = 32 | Cn1cc(Nc2ncc(Cl)c(NCC3CCCN(C(=O)CC#N)C3)n2)cn1 (stereo not shown) [Example 134, 3-(3-(((5-chloro-2-((1-methyl-1H-pyrazol-4-yl)amino)pyrimidin-4-yl)amino)methyl)piperidin-1-yl)-3-oxopropanenitrile] | – | – | –
< 100 | – | < 100 | 100 to 1000 | < 100 | JAK3 = 40 | Cn1cc(Nc2ncc(Cl)c(NC[C@@H]3CCCN(C(=O)CC#N)C3)n2)cn1 [Example 135, (S)-3-(3-(((5-chloro-2-((1-methyl-1H-pyrazol-4-yl)amino)pyrimidin-4-yl)amino)methyl)piperidin-1-yl)-3-oxopropanenitrile] | – | – | –
100 to 1000 | – | 100 to 1000 | 100 to 1000 | < 100 | JAK3 = 78 | Cn1cc(Nc2ncc(Cl)c(NC[C@@H]3CCCN(C(=O)CCC#N)C3)n2)cn1 [Example 136, (S)-4-(3-(((5-chloro-2-((1-methyl-1H-pyrazol-4-yl)amino)pyrimidin-4-yl)amino)methyl)piperidin-1-yl)-4-oxobutanenitrile] | – | – | –
< 100 | – | < 100 | 100 to 1000 | < 100 | JAK3 = 33 | Cn1cc(Nc2ncc(Cl)c(NC[C@H]3CCCN(C(=O)CC#N)C3)n2)cn1 [Example 137, (R)-3-(3-(((5-chloro-2-((1-methyl-1H-pyrazol-4-yl)amino)pyrimidin-4-yl)amino)methyl)piperidin-1-yl)-3-oxopropanenitrile] | – | – | –
< 100 | – | < 100 | 100 to 1000 | < 100 | JAK3 = 23 | Cn1cc(Nc2ncc(Cl)c(NC[C@H]3CCCN(C(=O)CCC#N)C3)n2)cn1 [Example 138, (R)-4-(3-(((5-chloro-2-((1-methyl-1H-pyrazol-4-yl)amino)pyrimidin-4-yl)amino)methyl)piperidin-1-yl)-4-oxobutanenitrile] | – | – | –
100 to 1000 | – | < 100 | 1000 to 10000 | < 100 | JAK3 = 83 | CC(C)S(=O)(=O)CCN1CCC[C@@H]1CNc1nc(Nc2cnn(C)c2)ncc1Cl [Example 139, (R)-5-chloro-N^4-((1-(2-(isopropylsulfonyl)ethyl)pyrrolidin-2-yl)methyl)-N^2-(1-methyl-1H-pyrazol-4-yl)pyrimidine-2,4-diamine] | – | – | –
– | – | – | – | – | – | COc1cc2ncnc(Nc3ccc(O)cc3)c2cc1OC [JANEX-1] | – | prevent spontaneous autoimmune diabetes development | attenuate the severity of GVHD
